From ChEMBL document CHEMBL4480398, “1,2,4-Triazolo[1,5-a]pyrimidines in drug design” (Eur J Med Chem, 2019)
Values after ≈ are worked out from the molar mass of the structure shown.

How the values were obtained:
Type in all cases: functional
[1] = test system: Mycobacterium tuberculosis; assay: Antibacterial activity against multidrug-resistant Mycobacterium tuberculosis P887 after 9 days by inverted microscopic analysis; conditions: P887, 216 h
[2] = test system: Mycobacterium tuberculosis; assay: Antibacterial activity against extensively drug resistant Mycobacterium tuberculosis X59 after 9 days by inverted microscopic analysis; conditions: X59, 216 h
[3] = test system: Mycobacterium tuberculosis; assay: Antibacterial activity against multidrug-resistant Mycobacterium tuberculosis M22 after 9 days by inverted microscopic analysis; conditions: M22, 216 h
[4] = test system: Mycobacterium tuberculosis; assay: Antibacterial activity against multidrug-resistant Mycobacterium tuberculosis M23 after 9 days by inverted microscopic analysis; conditions: M23, 216 h
[5] = test system: Mycobacterium tuberculosis; assay: Antibacterial activity against extensively drug resistant Mycobacterium tuberculosis X24 after 9 days by inverted microscopic analysis; conditions: X24, 216 h

SMILES	MIC [1]	MIC [2]	MIC [3]	MIC [4]	MIC [5]
Cc1nc2nc(S(=O)(=O)Nc3c(Br)ccc4cccnc34)nn2c2c1CCC2	2 µM (≈ 0.919 µg/mL)	2 µM (≈ 0.919 µg/mL)	2 µM (≈ 0.919 µg/mL)	2 µM (≈ 0.919 µg/mL)	2 µM (≈ 0.919 µg/mL)
Cc1ccn2nc(S(=O)(=O)Nc3c(Br)ccc4cccnc34)nc2n1	0.5 µM (≈ 0.21 µg/mL)	0.5 µM (≈ 0.21 µg/mL)	0.5 µM (≈ 0.21 µg/mL)	0.5 µM (≈ 0.21 µg/mL)	0.5 µM (≈ 0.21 µg/mL)
